One may read the IC50 as the concentration at which inhibition is half-maximal. As usually defined, the pIC50 is the IC50 on a negative log10 scale, so that one unit is a factor of ten. A higher pIC50 goes with a small IC50.

The target of assay [1] is T1, 5-lipoxygenase (Homo sapiens, UniProt P09917).
T1 construct: The formation of 5-HETE in human leukocytes is considered a measure of 5-lipoxygenase activity; endogenous in cells; host or cells: leukocytes isolated from fresh human blood
T1 sequence (P09917 1-674): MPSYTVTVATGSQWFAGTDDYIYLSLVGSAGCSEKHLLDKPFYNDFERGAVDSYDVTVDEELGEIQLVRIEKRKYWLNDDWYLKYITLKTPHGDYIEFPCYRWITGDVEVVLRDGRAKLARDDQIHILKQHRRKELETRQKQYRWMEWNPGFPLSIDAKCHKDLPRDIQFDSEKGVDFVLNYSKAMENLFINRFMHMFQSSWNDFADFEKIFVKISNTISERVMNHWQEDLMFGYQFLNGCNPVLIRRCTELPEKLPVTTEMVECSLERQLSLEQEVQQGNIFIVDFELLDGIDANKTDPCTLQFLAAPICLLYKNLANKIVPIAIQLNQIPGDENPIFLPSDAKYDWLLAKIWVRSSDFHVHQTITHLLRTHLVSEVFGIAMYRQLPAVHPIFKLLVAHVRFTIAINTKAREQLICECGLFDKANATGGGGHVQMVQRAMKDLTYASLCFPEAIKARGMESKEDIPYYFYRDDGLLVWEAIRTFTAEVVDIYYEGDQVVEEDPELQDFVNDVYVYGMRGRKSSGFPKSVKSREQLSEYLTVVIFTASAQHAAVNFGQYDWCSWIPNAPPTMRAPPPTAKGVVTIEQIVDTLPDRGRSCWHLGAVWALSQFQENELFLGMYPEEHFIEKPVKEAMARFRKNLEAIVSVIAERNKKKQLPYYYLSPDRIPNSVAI
Kind of assay: 5-Lipoxygenase Assay Using Isolated Human Leukocytes (5LOA2), 5-HETE formation. The assay is classed as cell-based. The note with it: inhibition of 5-HETE formation, arachidonic acid 20 μM, A23187 10 μM, read-out: 5-LO(IC50 in μM). How it is done: 5-Lipoxygenase Assay Using Isolated Human Leukocytes (5LOA2)
The formation of 5-HETE in human leukocytes is considered a measure of 5-lipoxygenase activity. The protocol is described in the following.
Fresh heparinized or EDTA treated human blood is mixed with 6% dextran-3% dextrose in isotonic saline in the ratio 0.25 ml dextran solution per 1.0 ml blood. After mixing the blood is allowed to sit at room temperature for about 90 minutes while the RBC's settle. During this period, the plasma is removed with a plastic pipette to nalgens tubes.
The pellet, consisting of leukocytes and erythrocytes, is treated with 10 ml 0.87% ammonium chloride at room temperature for four minutes, lysing the red cells. At the end of four minutes the cells are diluted with a 2x volume of phosphate buffered saline, pH 7.4, and centrifuged for ten minutes. The cells are washed three times with the phosphate buffered saline. Any of the pelleted cell matter which is not easily resuspended is discarded during the washings--the material contains platelets (12-lipoxygenase activity).
After washing, the cells are resuspended in phosphate buffered saline containing 1.0 mM 'calcium and 0.5 mM magnesium. After counting, the cells are diluted to 1.5-2.0×10^7 leukocytes per milliliter.
To each polypropylene reaction tube is added 0.48 ml leukocytes in Ca-Mg phosphate buffered saline, pH 7.4; 1-5 μl test compound dissolved in DMSO and buffer; or DMSO for control tubes.
The tubes preincubate at 37° C. for five minutes.
The reaction is started by adding 20 μl of the following, 0.5 μl, 20 mM arachidonic acid--final concentration=20 μM; 1 μl, 5 mM calcium ionophore A23187--final concentration=10 μM; and 18.5 μl buffer.
The reaction proceeds for five minutes, then is stopped by adding 0.5 ml, 0.5 mM ice-cold Tris buffer, pH 8.0. The tubes are chilled on ice for ten minutes and then extracted three times with a total of 3.5 ml ethyl acetate (3.0 ml removed).
The tubes can be stored at this point. For extended storage, the tubes should be filled with nitrogen.
The ethyl acetate is evaporated with a Sorvall Speed-Vac. The residue is dissolved in ethanol. The tubes can also be stored at this point at -20° C. under nitrogen.
A portion of the ethanol solution is injected into the HPLC system for 5-HETE quantitation.
Injections are made automatically with a Waters WISP 710B. The pump is a Spectra Physics SP8700. […] An RP C-18 column is used. The solvent system is isocratic; the solvent is 70% methanol and 30% 0.01M sodium acetate, pH 5.7, pumped at 1.0 ml/min. […] Using a 15 cm Alltech Nucleosil C-18 5 μM column provides for a sample turnaround time of about 16 minutes.

Assay [2] has as its target T2, cyclooxygenase (Bos taurus, UniProt O62664).
T2 construct: The assay consists of incubating 2 mg bovine seminal vesicle powder; from tissue; host or cells: bovine seminal vesicle powder
T2 sequence (O62664 25-600): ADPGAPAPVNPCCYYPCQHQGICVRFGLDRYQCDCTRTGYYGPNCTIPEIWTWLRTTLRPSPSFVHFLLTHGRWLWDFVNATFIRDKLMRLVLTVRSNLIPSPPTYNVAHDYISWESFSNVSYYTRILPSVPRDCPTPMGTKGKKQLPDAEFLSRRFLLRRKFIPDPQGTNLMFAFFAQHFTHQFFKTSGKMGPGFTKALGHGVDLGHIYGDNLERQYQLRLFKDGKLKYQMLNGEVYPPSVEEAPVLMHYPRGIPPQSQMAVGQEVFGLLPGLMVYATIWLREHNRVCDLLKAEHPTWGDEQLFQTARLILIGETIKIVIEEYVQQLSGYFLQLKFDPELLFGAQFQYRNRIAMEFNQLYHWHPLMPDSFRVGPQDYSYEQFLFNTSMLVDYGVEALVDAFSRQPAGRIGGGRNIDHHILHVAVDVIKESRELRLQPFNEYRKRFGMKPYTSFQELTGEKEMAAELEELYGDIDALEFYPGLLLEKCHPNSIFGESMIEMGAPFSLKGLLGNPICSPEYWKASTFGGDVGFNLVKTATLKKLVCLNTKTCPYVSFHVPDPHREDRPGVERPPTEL
Kind of assay: Cyclooxygenase Enzyme Assay, bovine seminal vesicle (BSV), PGE2 formation. The assay is classed as biochemical. The note with it: bovine seminal vesicle powder; 100 μM arachidonic acid, 20 minutes. How it is done:
Cyclooxygenase Enzyme Assay
Additionally, inhibition of cyclooxygenase is considered a measure of relevance to the pathophysiology of the above noted diseases.
The assay consists of incubating 2 mg bovine seminal vesicle powder with 2 mM epinephrine, 2.5 mM reduced glutathione, 100 μM arachidonic acid, and the test agent for 20 minutes. The reaction mixture is acidified and extracted with ethyl acetate (3×1.0 ml) and the pooled extract is evaporated to dryness using a Speed Vac Concentrator or under a stream of nitrogen. The residue was dissolved in ethanol.

Assay [3] deals with T3, cyclooxygenase (Rattus norvegicus, UniProt Q63921).
T3 construct: RBL-1 intact cell cyclooxygenase IC50 values; endogenous in cells; host or cells: RBL-1 rat basophilic leukemia cells (American Type Culture Collection)
T3 sequence (Q63921 27-602): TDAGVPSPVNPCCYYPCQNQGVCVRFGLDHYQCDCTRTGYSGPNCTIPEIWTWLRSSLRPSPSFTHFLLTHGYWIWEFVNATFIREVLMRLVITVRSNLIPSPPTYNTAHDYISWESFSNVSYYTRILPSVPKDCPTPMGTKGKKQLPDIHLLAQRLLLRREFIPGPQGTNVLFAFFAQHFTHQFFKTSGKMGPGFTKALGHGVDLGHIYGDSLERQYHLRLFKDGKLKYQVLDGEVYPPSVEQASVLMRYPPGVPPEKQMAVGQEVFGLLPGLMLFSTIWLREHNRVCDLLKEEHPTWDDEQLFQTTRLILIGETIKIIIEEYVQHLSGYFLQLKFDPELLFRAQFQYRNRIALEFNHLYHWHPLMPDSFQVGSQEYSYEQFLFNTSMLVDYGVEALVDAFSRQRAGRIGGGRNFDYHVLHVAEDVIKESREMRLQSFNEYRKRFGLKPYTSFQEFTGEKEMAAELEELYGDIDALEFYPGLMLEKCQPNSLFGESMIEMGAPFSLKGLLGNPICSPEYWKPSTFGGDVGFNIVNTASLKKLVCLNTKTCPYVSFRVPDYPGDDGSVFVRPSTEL
The assay is described as follows: ARBC Whole Cell Cyclooxygenase Assay in RBL-1 cells (PGF2α RIA). To be noted: RBL-1 intact cell cyclooxygenase; A23187 5 μM. The class given is cell-based. The protocol: (§1) ARBL/ARBC Whole Cell 5-Lipoxygenase and Cyclooxygenase Assays
(§2) The rat basophilic leukemia cell line (RBL-1) was obtained from the American Type Culture Collection (Rockville, Md.).
(§3) Radioimmuno assay (RIA) kits of LTB4 and PGF2α were obtained from Amersham (Arlington Heights, Ill.) and Seragen (Boston, Mass.) respectively.
(§4) All tissue culture media were obtained from GIBO (Gran Island, N.Y.).
(§5) RBL-1 cells were grown in culture (suspension) in Eagle's minimum essential medium supplemented with 12% fetal bovine serum and 1:100 antibiotic-antimycotic mixture at 37° C. in an incubator supplied with air-5% carbon dioxide. Cells were harvested by centrifugation. They were washed with cold phosphate buffered saline pH 7.4 (PBS; NaCl, 7.1 g; Na2 HOP4, 1.15 g; KH2 PO4, 0.2 g; and KCl, 0.2 g/L). […] Calcium ionophore A23187 (5 μM) was added and cells were incubated for seven minutes at 37° C. The reaction was stopped by chilling the tubes in ice for ten minutes. Cells were separated by centrifugation and the supernatant was stored at -20°. Aliquots (100 μl) were analyzed for LTB4 and PGF2α using radioimmuno assay kits as provided by the supplier.

The target in assay [4] is T4, 5-lipoxygenase (Rattus norvegicus, UniProt P12527).
T4 construct: ARBL/ARBC Whole Cell 5-Lipoxygenase and Cyclooxygenase Assays; endogenous in cells; host or cells: RBL-1 rat basophilic leukemia cells (American Type Culture Collection)
T4 sequence (P12527 1-673): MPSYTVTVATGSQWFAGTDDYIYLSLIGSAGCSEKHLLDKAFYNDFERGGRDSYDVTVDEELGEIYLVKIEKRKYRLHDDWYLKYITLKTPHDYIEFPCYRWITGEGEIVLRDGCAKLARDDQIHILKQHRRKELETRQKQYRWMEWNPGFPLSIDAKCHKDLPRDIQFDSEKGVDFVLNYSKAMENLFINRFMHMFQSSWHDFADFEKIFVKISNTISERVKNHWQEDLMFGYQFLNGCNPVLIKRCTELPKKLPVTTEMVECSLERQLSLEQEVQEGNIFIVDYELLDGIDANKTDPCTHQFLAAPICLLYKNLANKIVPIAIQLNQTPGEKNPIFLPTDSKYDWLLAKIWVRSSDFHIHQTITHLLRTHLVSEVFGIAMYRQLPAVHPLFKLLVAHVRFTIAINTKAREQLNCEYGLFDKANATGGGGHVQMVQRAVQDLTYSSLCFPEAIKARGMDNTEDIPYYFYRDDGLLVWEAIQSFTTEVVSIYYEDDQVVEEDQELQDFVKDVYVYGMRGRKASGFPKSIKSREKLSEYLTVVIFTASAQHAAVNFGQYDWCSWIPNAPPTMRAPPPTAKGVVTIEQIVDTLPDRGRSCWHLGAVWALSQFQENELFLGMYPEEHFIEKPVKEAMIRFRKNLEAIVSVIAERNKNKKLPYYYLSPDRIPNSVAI
The assay is described as follows: ARBL Whole Cell 5-Lipoxygenase Assay in RBL-1 cells (LTB4 RIA). The assay is classed as cell-based. The note with it: RBL-1 intact cell 5-lipoxygenase; A23187 5 μM. The protocol: as §1, §2, §3, §4, §5

pIC50: −log10 of the molar value.

With `COc1cc(CCc2cc(CCc3ccc(O)c(OC)c3)on2)ccc1O` [Example 12, 3,5-Bis[β-(4'-hydroxy-3'-methoxyphenyl)ethyl]isoxazole], the IC50 in assay [1] amounted to 29 µM; in assay [2], 31 µM.
The like results for `COc1cc(C=Cc2cc(-c3ccccc3)[nH]n2)ccc1O` [Example 4, 3-[β-(4'-Hydroxy-3'-methoxyphenyl)ethenyl]-5-phenylpyrazole] were, in that order, 4.3 µM and 40 µM.
The like results for `CCc1cc(C=Cc2ccc(O)c(OC)c2)n[nH]1` [Example 9, 3-[β-(4'-Hydroxy-3'-methoxyphenyl)ethenyl]-5-ethylpyrazole] were, in that order, 7.5 µM and 56 µM.
As for `Oc1ccc(CCc2cc(CCc3ccc(O)cc3)[nH]n2)cc1` [Example 3, 3,5-Bis[β-(4'-hydroxyphenyl)ethyl]pyrazole], the IC50 in assay [1] stood at 15 µM; in assay [2] it was 44 µM.
`COc1cc(CCc2cc(CCc3ccc(O)c(OC)c3)[nH]n2)ccc1O` [Example 2, 3,5-Bis[β-(4'-hydroxy-3'-methoxyphenyl)ethyl]pyrazole]: the IC50 in assay [1] stood at 53 µM; in assay [2] it was 67 µM.
With `COc1ccc(C=Cc2cc(C)[nH]n2)cc1O` [Example 8, 3-[β-(4'-Methoxy-3'-hydroxyphenyl)ethenyl]-5-methylpyrazole], in assay [1], the IC50 is above 20 µM.
As to `CCOC(=O)c1cc(C=Cc2ccc(O)c(OC)c2)n[nH]1` [Example 10, Ethyl-3-[β-(3-methoxy-4-hydroxyphenyl)ethenyl]-1H-pyrazole-5-carboxylate], the results for the pIC50 in assay [3] and in assay [4] were 4.96 and 5.28, respectively. The IC50 in assay [1] is 18 µM.
Turning to `COc1cc(CCc2cc(C)n[nH]2)ccc1O` [Example 6, 3-[β-(4'-Hydroxy-3'-methoxyphenyl)ethyl]-5-methylpyrazole], the IC50 in assay [1] was above 20 µM.
